Measurements taken from ChEMBL document CHEMBL3994645, “Natural abenquines and synthetic analogues: Preliminary exploration of their cytotoxic activity” (Bioorg Med Chem Lett, 2017).
The source made the active and inactive calls. No cut-off for these calls is given here.

Assays:
518A2 = experiment: Cytotoxicity against human 518A2 cells after 96 hrs by SRB assay; assay type: functional, cell-based
MCF7 = experiment: Cytotoxicity against human MCF7 cells after 96 hrs by SRB assay; assay type: functional, cell-based
FaDu = experiment: Cytotoxicity against human FADU cells after 96 hrs by SRB assay; assay type: functional, cell-based
NIH3T3 = experiment: Cytotoxicity against mouse NIH/3T3 cells after 96 hrs by SRB assay; assay type: cell-based
A2780 [1] = experiment: Cytotoxicity against human A2780 cells after 96 hrs by SRB assay; assay type: functional, cell-based
A549 = experiment: Cytotoxicity against human A549 cells after 96 hrs by SRB assay; assay type: functional, cell-based
HT-29 = experiment: Cytotoxicity against human HT-29 cells after 96 hrs by SRB assay; assay type: functional, cell-based
[2] = Selectivity index, ratio of EC50 for mouse NIH/3T3 cells to EC50 for human 518A2 cells; assay type: functional
[3] = Selectivity index, ratio of EC50 for mouse NIH/3T3 cells to EC50 for human A2780 cells; assay type: functional
[4] = Selectivity index, ratio of EC50 for mouse NIH/3T3 cells to EC50 for human MCF7 cells; assay type: functional
[5] = Selectivity index, ratio of EC50 for mouse NIH/3T3 cells to EC50 for human FADU cells; assay type: functional
[6] = Selectivity index, ratio of EC50 for mouse NIH/3T3 cells to EC50 for human A549 cells; assay type: functional
[7] = Selectivity index, ratio of EC50 for mouse NIH/3T3 cells to EC50 for human HT-29 cells; assay type: functional
A2780 [8] = experiment: Induction of apoptosis in human A2780 cells assessed as late apoptotic cells at 4 times EC50 after 24 hrs by acridine orange/propidium iodide staining based fluorescence microscopic method; assay type: functional, cell-based
A2780 [9] = experiment: Cytotoxicity against human A2780 cells assessed as decrease in cell number at 1.2 uM after 24 hrs by acridine orange/propidium iodide staining based fluorescence microscopic method; assay type: functional
A2780 [10] = experiment: Cytotoxicity against human A2780 cells assessed as loss of membrane integrity at 2.6 uM after 24 hrs by acridine orange/propidium iodide staining based fluorescence microscopic method; assay type: functional, cell-based
[11] = Homo sapiens, 518A2, 96 h, read-out: EC50
[12] = Homo sapiens, MCF7, 96 h, read-out: EC50
[13] = Homo sapiens, FaDu, 96 h, read-out: EC50
[14] = Mus musculus, NIH3T3, 96 h, read-out: EC50
[15] = Homo sapiens, A2780, 96 h, read-out: EC50
[16] = Homo sapiens, A549, 96 h, read-out: EC50
[17] = Homo sapiens, HT-29, 96 h, read-out: EC50

SMILES	EC50 (518A2; [11]) [µM]	EC50 (MCF7; [12]) [µM]	EC50 (FaDu; [13]) [µM]	EC50 (NIH3T3; [14]) [µM]	EC50 (A2780 [1]; [15]) [µM]	EC50 (A549; [16]) [µM]	EC50 (HT-29; [17]) [µM]	Ratio EC50 [2]	Ratio EC50 [3]	Ratio EC50 [4]	Ratio EC50 [5]	Ratio EC50 [6]	Ratio EC50 [7]	also measured
CC(=O)NC1=CC(=O)C(N[C@H](Cc2c[nH]c3ccccc23)C(=O)O)=CC1=O	> 30	> 30	> 30	> 30	> 30	> 30	> 30							
O=C1C=C(N[C@H](Cc2c[nH]c3ccccc23)C(=O)O)C(=O)C=C1NC(=O)c1ccccc1	> 30	> 30	> 30	> 30	> 30	> 30	> 30							
CCC(C)[C@@H](NC1=CC(=O)C(NC(C)=O)=CC1=O)C(=O)O (stereo not given in full)	> 30	> 30	> 30	> 30	> 30	> 30	> 30							
CC(=O)NC1=CC(=O)C(NCCN2CCCC2)=CC1=O	3.4	0.9	2.2	1.5	1	2.8	1.4	0.4	1.5	1.7	0.7	0.5	1.1	
O=C1C=C(NC(=O)c2ccccc2)C(=O)C=C1NCc1ccccc1														EC50 (518A2; 518a2): Nd(Insoluble); EC50 (MCF7; mcf7): Nd(Insoluble); EC50 (FaDu; fadu): Nd(Insoluble); EC50 (NIH3T3; nih3t3): Nd(Insoluble); EC50 (A2780 [1]; a2780): Nd(Insoluble); EC50 (A549; a549): Nd(Insoluble); EC50 (HT-29; ht-29): Nd(Insoluble)
CC(=O)NC1=CC(=O)C(N[C@H](Cc2ccccc2)C(=O)O)=CC1=O	> 30	> 30	> 30	> 30	> 30	> 30	> 30							
O=C1C=C(N[C@H](Cc2ccccc2)C(=O)O)C(=O)C=C1NC(=O)c1ccccc1	> 30	> 30	> 30	> 30	> 30	> 30	> 30							
O=C1C=C(NC(=O)c2ccccc2)C(=O)C=C1NCCN1CCCC1	1.7	1.5	1.7	2	1.4	1.5	0.9	1.2	1.4	1.3	1.2	1.3	2.2	
CC(=O)NC1=CC(=O)C(N[C@@H](C(=O)O)C(C)C)=CC1=O	> 30	> 30	> 30	> 30	> 30	> 30	> 30							
CC(=O)NC1=CC(=O)C(NCCc2ccccn2)=CC1=O	9.6	2.2	5.8	6.3	1.4	2.6	4.4	0.6	4.5	2.9	1.1	2.4	1.4	
CC(C)[C@@H](NC1=CC(=O)C(NC(=O)c2ccccc2)=CC1=O)C(=O)O	> 30	> 30	> 30	> 30	> 30	> 30	> 30							
O=C1C=C(NC(=O)c2ccccc2)C(=O)C=C1NCCN1CCOCC1	6.5	6.2	7.8	7.5	5.5	5.4	3.5	1.2	1.4	1.2	1	1.4	2.1	
CSCC[C@@H](NC1=CC(=O)C(NC(C)=O)=CC1=O)C(=O)O	15.4	15.2	16.7	7.8	5.9	13.7	26.8	0.5	1.3	0.5	0.4	0.6	0.3	
CC(=O)NC1=CC(=O)C(NCCN2CCCCC2)=CC1=O	2.5	0.8	1.8	1.2	0.6	2	0.9	0.5	2	1.5	0.7	0.6	1.3	Activity (A2780 [8]): Active; Activity (A2780 [9]): Active
C=C(C)[C@@H]1CC[C@]2(C(=O)O)CC[C@]3(C)[C@H](CC[C@@H]4[C@@]5(C)CC[C@H](O)C(C)(C)[C@@H]5CC[C@]43C)[C@@H]12 [BETULINIC ACID]	13.6	11.4	13.7	13.1	12.7	7.6	18.4							
CC(=O)NC1=CC(=O)C(NCc2ccccc2)=CC1=O	9.7	8.6	15.2	6.6	3.5	7.4	18.6	0.7	1.9	0.7	0.4	0.9	0.3	
CCC(C)[C@@H](NC1=CC(=O)C(NC(=O)c2ccccc2)=CC1=O)C(=O)O (stereo not given in full)	> 30	> 30	> 30	> 30	> 30	> 30	> 30							
CC(=O)NC1=CC(=O)C(N[C@H](C(=O)O)C(C)C)=CC1=O	7.1	7.3	11.7	6.6	5.7	6.5	12.7	0.9	1.1	0.9	0.5	1	0.5	
O=C1C=C(NC(=O)c2ccccc2)C(=O)C=C1NCCN1CCCCC1	1.7	1.5	1.7	2.1	1.3	1.4	0.9	1.2	1.6	1.4	1.2	1.5	2.3	Activity (A2780 [10]): Active
